Laboratory results published in PubChem BioAssay AID328 (DTP/NCI, 2004).
Values joined by “and” are separate entries in the source; they are usually repeats but may differ in a detail not shown here. Equal values may be shown once. Inconclusive results and toxic doses are left out.

System: BDF1 mice, P388 leukemia ip, median survival T/C
Experiment: NCI In Vivo Anticancer Drug Screen. Data for tumor model P388 Leukemia (intraperitoneal) in B6D2F1 (BDF1) mice
Settings: endpoint: median survival time, higher = longer survival
Outline: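 Vehicle-dosed animals serve as the reference; survival of compound-dosed, tumour-implanted mice is divided by it.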

[1] = dose: 100.0 mg/kg/injection, schedule: Q01DX009 (ip), vehicle: saline with Tween-80
[2] = dose: 200.0 mg/kg/injection, schedule: Q01DX009 (ip), vehicle: saline with Tween-80
[3] = dose: 400.0 mg/kg/injection, schedule: Q04DX003 (ip), vehicle: saline with Tween-80
[4] = dose: 100.0 mg/kg/injection, schedule: Q01DX009 (ip), vehicle: Klucel (hydroxypropylcellulose) (HPC)
[5] = dose: 100.0 mg/kg/injection, schedule: Q04DX003 (ip), vehicle: Klucel (hydroxypropylcellulose) (HPC)
[6] = dose: 200.0 mg/kg/injection, schedule: Q01DX009 (ip), vehicle: Klucel (hydroxypropylcellulose) (HPC)
[7] = dose: 200.0 mg/kg/injection, schedule: Q04DX003 (ip), vehicle: Klucel (hydroxypropylcellulose) (HPC)
[8] = dose: 400.0 mg/kg/injection, schedule: Q01DX009 (ip), vehicle: Klucel (hydroxypropylcellulose) (HPC)
[9] = dose: 400.0 mg/kg/injection, schedule: Q04DX003 (ip), vehicle: Klucel (hydroxypropylcellulose) (HPC)

CN(C)c1ccc(/C=C2\C=Cc3ccccc32)cc1
T/C (dose: 3.12 mg/kg/injection, schedule: Q04DX003 (ip), vehicle: saline with Tween-80): 90 % of control | T/C (dose: 6.25 mg/kg/injection, schedule: Q04DX003 (ip), vehicle: saline with Tween-80): 90 % of control | T/C (dose: 12.5 mg/kg/injection, schedule: Q04DX003 (ip), vehicle: saline with Tween-80): 92 % of control and 100 % of control | T/C (dose: 25.0 mg/kg/injection, schedule: Q01DX009 (ip), vehicle: saline with Tween-80): 100 % of control | T/C (dose: 50.0 mg/kg/injection, schedule: Q01DX009 (ip), vehicle: saline with Tween-80): 103 % of control | T/C [1]: 96 % of control and 100 % of control | T/C [2]: 90 % of control | T/C [3]: 96 % of control

O=CN(O)CC(=O)O.[Cu]
T/C (dose: 1.16 mg/kg/injection, schedule: Q04DX003 (ip), vehicle: saline): 95 % of control | T/C (dose: 1.77 mg/kg/injection, schedule: Q04DX003 (ip), vehicle: saline): 95 % of control | T/C (dose: 2.65 mg/kg/injection, schedule: Q04DX003 (ip), vehicle: saline): 90 % of control | T/C (dose: 3.9 mg/kg/injection, schedule: Q04DX003 (ip), vehicle: saline): 90 % of control | T/C (dose: 6.0 mg/kg/injection, schedule: Q04DX003 (ip), vehicle: saline): 100 % of control | T/C (dose: 9.0 mg/kg/injection, schedule: Q04DX003 (ip), vehicle: saline): 113 % of control | T/C (dose: 10.0 mg/kg/injection, schedule: Q01DX001 (ip), vehicle: saline): 100 % of control | T/C (dose: 13.0 mg/kg/injection, schedule: Q04DX003 (ip), vehicle: saline): 104 % of control | T/C (dose: 20.0 mg/kg/injection, schedule: Q01DX001 (ip), vehicle: saline): 118 % of control

O=C1C=CC(=O)N1CO
T/C (dose: 0.62 mg/kg/injection, schedule: Q04DX003 (ip), vehicle: saline): 100 % of control | T/C (dose: 1.25 mg/kg/injection, schedule: Q01DX009 (ip), vehicle: saline): 109 % of control | T/C (dose: 1.25 mg/kg/injection, schedule: Q04DX003 (ip), vehicle: saline): 95 % of control | T/C (dose: 2.5 mg/kg/injection, schedule: Q01DX009 (ip), vehicle: saline): 118 % of control | T/C (dose: 2.5 mg/kg/injection, schedule: Q04DX003 (ip), vehicle: saline): 90 % of control | T/C (dose: 3.6 mg/kg/injection, schedule: Q04DX003 (ip), vehicle: saline): 100 % of control | T/C (dose: 5.6 mg/kg/injection, schedule: Q04DX003 (ip), vehicle: saline): 104 % of control | T/C (dose: 8.4 mg/kg/injection, schedule: Q04DX003 (ip), vehicle: saline): 104 % of control

COC1=C(N2CC2)C(=O)C(OC)=C(N2CC2)C1=O
T/C (dose: 0.5 mg/kg/injection, schedule: Q01DX009 (ip), vehicle: Klucel (hydroxypropylcellulose) (HPC)): 217 % of control | T/C (dose: 0.5 mg/kg/injection, schedule: Q01DX009 (ip), vehicle: saline): 162 % of control | T/C (dose: 0.8 mg/kg/injection, schedule: Q04DX003 (ip), vehicle: saline with Tween-80): 170 % of control | T/C (dose: 1.0 mg/kg/injection, schedule: Q01DX009 (ip), vehicle: Klucel (hydroxypropylcellulose) (HPC)): 234 % of control | T/C (dose: 1.0 mg/kg/injection, schedule: Q01DX009 (ip), vehicle: saline with Tween-80): 179 % of control | T/C (dose: 1.0 mg/kg/injection, schedule: Q01DX009 (ip), vehicle: saline): 201 % of control | T/C (dose: 1.8 mg/kg/injection, schedule: Q04DX003 (ip), vehicle: saline with Tween-80): 154 % of control | T/C (dose: 2.0 mg/kg/injection, schedule: Q01DX009 (ip), vehicle: Klucel (hydroxypropylcellulose) (HPC)): 285 % of control | T/C (dose: 2.0 mg/kg/injection, schedule: Q01DX009 (ip), vehicle: saline with Tween-80): 91 % of control | T/C (dose: 2.0 mg/kg/injection, schedule: Q01DX009 (ip), vehicle: saline): 252 % of control | T/C (dose: 2.6 mg/kg/injection, schedule: Q04DX003 (ip), vehicle: saline with Tween-80): 173 % of control | T/C (dose: 4.0 mg/kg/injection, schedule: Q01DX009 (ip), vehicle: Klucel (hydroxypropylcellulose) (HPC)): 326 % of control | T/C (dose: 4.0 mg/kg/injection, schedule: Q01DX009 (ip), vehicle: saline): 92 % of control | T/C (dose: 4.0 mg/kg/injection, schedule: Q04DX003 (ip), vehicle: saline with Tween-80): 165 % of control | T/C (dose: 6.0 mg/kg/injection, schedule: Q04DX003 (ip), vehicle: saline with Tween-80): 200 % of control

Nc1nc(N)c(N=O)c(N)n1
T/C (dose: 100.0 mg/kg/injection, schedule: Q01DX009 (ip), vehicle: saline): 150 % of control | T/C (dose: 200.0 mg/kg/injection, schedule: Q01DX009 (ip), vehicle: saline): 111 % of control | T/C (dose: 400.0 mg/kg/injection, schedule: Q01DX009 (ip), vehicle: saline): 106 % of control

Cc1ccc(C(CCC#N)OC(C)C)cc1 (stereo unspecified)
T/C [4]: 86 % of control | T/C [5]: 100 % of control | T/C [6]: 109 % of control | T/C [7]: 109 % of control | T/C [8]: 113 % of control | T/C [9]: 109 % of control

Cn1nnc2nnc(-c3ccccc3)n21
T/C [1]: 100 % of control | T/C (dose: 100.0 mg/kg/injection, schedule: Q04DX003 (ip), vehicle: saline with Tween-80): 100 % of control | T/C [2]: 103 % of control | T/C (dose: 200.0 mg/kg/injection, schedule: Q04DX003 (ip), vehicle: saline with Tween-80): 100 % of control | T/C [3]: 95 % of control

CCCCCCCCCCCCN(CCC(=O)O)S(=O)(=O)O
T/C (dose: 25.0 mg/kg/injection, schedule: Q01DX009 (ip), vehicle: Klucel (hydroxypropylcellulose) (HPC)): 95 % of control | T/C (dose: 50.0 mg/kg/injection, schedule: Q01DX009 (ip), vehicle: Klucel (hydroxypropylcellulose) (HPC)): 104 % of control | T/C (dose: 75.0 mg/kg/injection, schedule: Q04DX003 (ip), vehicle: Klucel (hydroxypropylcellulose) (HPC)): 100 % of control | T/C [4]: 90 % of control | T/C (dose: 150.0 mg/kg/injection, schedule: Q04DX003 (ip), vehicle: Klucel (hydroxypropylcellulose) (HPC)): 100 % of control

CCCB(O)O
T/C (dose: 100.0 mg/kg/injection, schedule: Q01DX001 (ip), vehicle: saline): 100 % of control | T/C (dose: 200.0 mg/kg/injection, schedule: Q01DX001 (ip), vehicle: saline): 113 % of control | T/C (dose: 400.0 mg/kg/injection, schedule: Q01DX001 (ip), vehicle: saline): 95 % of control

C#CCN(C)Cc1ccccc1
T/C (dose: 50.0 mg/kg/injection, schedule: Q01DX010 (ip), vehicle: saline): 95 % of control | T/C (dose: 100.0 mg/kg/injection, schedule: Q01DX010 (ip), vehicle: saline): 100 % of control | T/C (dose: 200.0 mg/kg/injection, schedule: Q01DX010 (ip), vehicle: saline): 109 % of control

Cc1ncc(CO)c(/C=N/OCc2ccc(OCc3ccccc3)cc2)c1O
T/C (dose: 50.0 mg/kg/injection, schedule: Q04DX003 (ip), vehicle: saline sonified): 100 % of control | T/C (dose: 100.0 mg/kg/injection, schedule: Q04DX003 (ip), vehicle: saline sonified): 100 % of control | T/C (dose: 200.0 mg/kg/injection, schedule: Q04DX003 (ip), vehicle: saline sonified): 95 % of control

S=C1NC(c2ccccc2)NC(c2ccccc2)S1 (stereo unspecified)
T/C (dose: 100.0 mg/kg/injection, schedule: Q01DX001 (ip), vehicle: Klucel (hydroxypropylcellulose) (HPC)): 95 % of control | T/C [4]: 111 % of control | T/C [5]: 91 % of control and 100 % of control | T/C (dose: 200.0 mg/kg/injection, schedule: Q01DX001 (ip), vehicle: Klucel (hydroxypropylcellulose) (HPC)): 95 % of control | T/C [6]: 111 % of control | T/C [7]: 91 % of control and 108 % of control | T/C [8]: 111 % of control | T/C [9]: 87 % of control and 108 % of control
